“Also recorded” adds a separate entry of the source.

The source of these data is patent US20130046098A1, “KINASE INHIBITORS” (THE UNIVERSITY OF MANCHESTER, priority 2009, published 2013).

Data set [1] has as its system GEF16 transfected NIH3T3 cells. The data set is described as follows: Cell proliferation assay (Celltiter Aq96). It counts as cell-based, mouse. The following applies: 10 μM, FIG. 3B, P>0.05. As to the method: FIG. 1D is a bar chart showing the results of Cell AQ^96 assessment of the growth of GEF16 and vector transfected cells seeded in a 96 well plate at 1×10^3 cells per well. These were incubated for 3 days followed by addition of reagent to determine the starting point for the assay. 10 μM of either Y27632 or DMSO were then added to wells containing both cell types and Cell AQ^96 absorbance measured at 6, 8 and 10 days. At day 3 cells were 100% confluent which was determined by phase contrast visual inspection of the cultures at ×20 magnification;
Cell proliferation was investigated using Celltiter Aq^96 reagent (Promega, Southampton, UK) according to the manufacturer's protocol. Cells were seeded into a 96-well plate at a density of 1×10^3 cells/well allowing 3 wells per data point and allowed to attach for a set period. Following this, the initial starting point 490 nm absorbance was determined by adding 20 μl of Aq^96 reagent to each well and incubating for 4 h at 37° C. in 5% CO2 (96-well plate reader, Dynex Technologies, West Sussex, UK). The various compounds (Y27632 or compounds of the invention) or DMSO control were then added to duplicate wells and the absorbance determined in the same way at the time points indicated. Each data set shown is representative of three separate experiments.

Data set [2] deals with single transformed colony derived GEF16 NIH3T3 cells. As to the kind of experiment: Growth of cell populations derived from single GEF16 transformed colonies. It counts as cell-based, mouse. How it is done:
(§1) FIG. 5 illustrates that the growth suppressive effects of YA1 on single transformed colony derived GEF16 NIH3T3 cells and polyclonal Ras transformed NIH3T3 cells are more pronounced when these are co-cultured with non-transformed cells. In FIG. 5A single transformed colonies were picked from 10 day cultures of GEF16 polyclonal NIH3T3 cells and expanded. These cells were then seeded at 2.0×10^5 cells per 30 mm dish and treated with 10 μM of YA1 or DMSO control either immediately or following 10 days in culture. Duplicate wells were harvested for flow cytometry. In FIG. 5B a total of 2×10^5 cells per well were plated consisting of increasing numbers of non-transformed vector cells co-cultured with decreasing numbers of single transformed colony derived GEF16 cells. These were treated with 10 μM of either YA1 or DMSO for 10 days. In producing the results shown in FIG. 5C the same co-culture experiment described in connection with FIG. 5B was carried out substituting polyclonal Ras transformed NIH3T3 cells for GEF16 transformed cells.
Single transformed colonies were picked from GEF16 polyclonal NIH3T3 cells and expanded according to the methods described above. Expanded cell populations were plated and a compound of the invention (YA1) added either immediately or after 10 days when the cells were post-confluent.

For data set [3], the system named is single transformed colony derived GEF16 cells co-cultured with non-transformed vector cells. The data set is described as follows: Co-culture of single colony derived GEF16 cells with non-transformed vector cells. It counts as cell-based, mouse. The following applies: 10 μM, 10 days. How it is done: as §1
Non-transformed vector cells mixed with decreasing numbers of cells expanded from single GEF16 transformed colonies were treated with the compound of the invention YA1, or with DMSO, and incubated for 10 days.

Data set [4] deals with GEF16 transformed donor cells and non-transformed NIH3T3-vector recipient cells. As to the kind of experiment: Flow cytometric LY/PKH67 assay of gap junction intercellular communication (GJIC). To be noted: 10 μM, p<0.05, FIG. 6B. It counts as cell-based, mouse. As to the method:
A novel flow cytometric assay was developed to measure the extent of gap junction intercellular communication (GJIC) using two differentially stained cell populations. Non-transformed recipient NIH3T3-vector cells were stained with PKH67 (Excitation 490, Emission 502, Sigma-Aldrich, Poole, UK) and GEF16 transformed donor cells were stained with Lucifer yellow (LY) (Excitation 427 nm, Emission 517 nm, Invitrogen Ltd., Paisley, UK) as follows.
A 1 ml suspension of 1×10^7 recipient cells in serum-free DMEM was mixed with an equal volume of 4 μM PKH67 solution and incubated for 5 min at room temperature. The reaction was terminated by adding 2 ml serum and incubating for 1 min. Cells were then washed three times with culture medium, and seeded at 1.5×10^6 cells/T-25 flask. […]
LY labelled donor cells were then harvested and 1×10^5 were added to the T25 flask containing the PKH67 labelled recipient cells plus 10 μM YA1 or DMSO control. After incubating for various time intervals, the co-cultured donor and recipient cells were collected and analysed using a BD FACS Aria™ (BD Biosciences, Oxford, UK). A 405 nm laser was used for LY excitation and emission was measured using a 515 nm to 545 nm band pass filter. GJIC between co-cultured donor and recipient cells was quantified as the percentage of LY and PKH67 double labelled cells.
A general note: A flow cytometer gives signals particle by particle.

Data set [5] concerns polyclonal GEF16 transfected NIH3T3 cells. The data set is described as follows: Transformed colony forming assay (Toluidine blue).
Experimental: Following this incubation period the compound was then removed from the culture media and cells maintained in normal growth media for a further 10 days before the photographs shown were taken.
In FIG. 4A polyclonal GEF16 transfected cells were seeded at 2.0×10^5 cells per 30 mm dish and incubated over night. […] After a further 10 days culture in the absence of inhibitors the cells were stained with Toluidine blue and photographed to produce the images shown. […] These were incubated for 3 or 6 days then stained with Toluidine blue before being photographed.
Medium (containing the compound of interest—either Y27632 or the selected compounds of the invention—or DMSO control) was changed every 2 days. Formation of foci was analysed by Toluidine blue (Sigma-Aldrich, Poole, UK) staining after 10 days growth post confluence. […] Each assay was carried out in triplicate and the results shown are representative of at least three separate experiments.
In a further data set the target is HGK (MAP4K4) (Homo sapiens, UniProt O95819). The data set is described as follows: SelectScreen in vitro kinase profiling, single point.
Sequence of HGK (MAP4K4) (O95819 whole entry): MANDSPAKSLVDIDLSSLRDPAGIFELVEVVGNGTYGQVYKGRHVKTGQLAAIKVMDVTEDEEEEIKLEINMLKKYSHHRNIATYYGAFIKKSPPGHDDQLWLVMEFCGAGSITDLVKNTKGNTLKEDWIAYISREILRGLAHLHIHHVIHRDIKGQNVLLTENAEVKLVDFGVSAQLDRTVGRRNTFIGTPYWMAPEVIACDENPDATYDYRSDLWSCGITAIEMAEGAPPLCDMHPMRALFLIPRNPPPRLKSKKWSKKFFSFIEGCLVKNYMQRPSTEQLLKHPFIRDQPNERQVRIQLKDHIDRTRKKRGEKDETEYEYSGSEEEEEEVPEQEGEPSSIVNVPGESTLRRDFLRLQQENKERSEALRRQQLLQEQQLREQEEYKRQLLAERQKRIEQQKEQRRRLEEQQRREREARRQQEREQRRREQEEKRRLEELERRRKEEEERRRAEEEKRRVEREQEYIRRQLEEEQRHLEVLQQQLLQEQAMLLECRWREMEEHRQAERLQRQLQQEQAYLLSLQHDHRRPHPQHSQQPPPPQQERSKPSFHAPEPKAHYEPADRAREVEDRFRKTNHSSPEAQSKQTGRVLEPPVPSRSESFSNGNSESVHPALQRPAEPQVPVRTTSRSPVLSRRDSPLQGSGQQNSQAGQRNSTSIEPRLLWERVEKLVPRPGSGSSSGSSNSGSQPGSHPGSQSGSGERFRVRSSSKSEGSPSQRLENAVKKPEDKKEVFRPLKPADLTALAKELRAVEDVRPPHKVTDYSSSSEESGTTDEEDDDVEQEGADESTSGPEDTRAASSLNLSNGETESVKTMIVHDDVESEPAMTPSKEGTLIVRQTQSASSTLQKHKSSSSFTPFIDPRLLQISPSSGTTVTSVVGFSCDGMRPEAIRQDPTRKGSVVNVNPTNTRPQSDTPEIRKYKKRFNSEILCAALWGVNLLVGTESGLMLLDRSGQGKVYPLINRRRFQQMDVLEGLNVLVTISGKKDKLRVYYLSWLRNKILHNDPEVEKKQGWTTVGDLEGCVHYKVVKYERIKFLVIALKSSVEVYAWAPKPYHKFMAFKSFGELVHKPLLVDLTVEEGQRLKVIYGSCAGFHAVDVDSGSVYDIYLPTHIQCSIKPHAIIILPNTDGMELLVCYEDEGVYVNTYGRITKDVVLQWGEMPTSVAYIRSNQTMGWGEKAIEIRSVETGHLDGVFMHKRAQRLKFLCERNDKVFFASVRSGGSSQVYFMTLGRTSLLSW

With `CC(C)(C)OC(=O)NCc1ccc(C(=O)Nc2ccncc2)cc1` [YA1, 4-(Pyridin-4-ylcarbamoyl)benzylcarbamic acid tert-butyl ester], the “growth rates of sub-confluent GEF16 polyclonal cells versus DMSO control” value in data set [1] is “no detectable difference in growth rates”. Also, the “effect on single colony derived GEF16 cells, added to post-confluent cultures” value in data set [2] (10 μM, added after 10 days in culture) is recorded as “no discernible effect when compared to controls”. Moreover, the “saturation density of single colony derived GEF16 cells, added to low density cultures” value in data set [2] (10 μM, added immediately) is reported as “modest effect when added to low density cultures”. For the same compound, the “effect on single colony derived GEF16 transformed cells grown in the absence of non-transformed cells” value in data set [2] (FIG. 5A) was “little or no effect”. The “final saturation density / growth of transformed cells in co-culture with non-transformed cells” value in data set [3] is “marked reduction in the final saturation density of the cultures; also recorded: more effective at suppressing the growth of transformed cells when these are in contact with non-transformed cells; also recorded: clearly restored when these are co-cultured with non-transformed NIH3T3 cells”. The “number of double LY/PKH67 labelled cells compared to DMSO control” value in data set [4] is reported as “approximately 3 times”. Moreover, the “number of transformed foci after transient exposure and withdrawal” value in data set [5] (10 μM for 2, 4, 6, 8, 10 days, then 10 day chase in normal media) is given as “progressive decrease in the number of transformed foci associated with increased time of exposure”. The “transformed focus formation after treatment, re-seeding and chase” value in data set [5] (10 μM for 2-10 days, re-seeded at 2×10^5, 10 day chase without inhibitor) is “able to suppress transformed focus formation”. Also, the “formation of GEF16 transformed colonies” value in data set [5] (10 μM, 10 days, post confluent cultures) was “able to block transformed GEF16 colony formation to an extent comparable to the inhibition achieved using Y27632; also recorded: greatest ability to inhibit GEF16 transformed colonies”. The “effect on pre-formed transformed colonies” value in data set [5] (colonies formed for 10 days, then 10 μM or 20 μM for 3 and 6 days) was “marked reduction in their numbers”. In addition, the “activity against HGK” value at HGK (MAP4K4) (additional single point analysis, 10 μM) is “significant activity against p38, HGK and Aurora A”. In addition, on HGK (MAP4K4) (read-out: inhibitory activity against HGK (MAP4K4)), the inhibition at 10 µM was 63%.
